Key:
Type in all cases: biochemical
Conditions in all cases: 10 μM, ATP near Km
[1] = target: T1, EphB2 (Homo sapiens, UniProt P29323); assay: KinaseProfiler EphB2
T1 construct: purchased Millipore, Inc. (KinaseProfiler service)
Text: (§1) The compound was run in duplicate at a concentration of ATP near the Km for each individual kinase according to Millipore's specifications.

[2] = target: T2, Pim-3 (Homo sapiens, UniProt Q86V86); assay: KinaseProfiler Pim-3
T2 construct: purchased Millipore, Inc. (KinaseProfiler service)
Text: as §1

[3] = target: T3, Flt1 (Homo sapiens, UniProt P17948); assay: KinaseProfiler Flt1
T3 construct: purchased Millipore, Inc. (KinaseProfiler service)
Text: as §1

[4] = target: T4, CAMK2b (Homo sapiens, UniProt Q13554); assay: KinaseProfiler CAMK2b
T4 construct: purchased Millipore (KinaseProfiler service)
Text: as §1

[5] = target: T5, PKD2 (Homo sapiens, UniProt Q9BZL6); assay: KinaseProfiler PKD2
T5 construct: purchased Millipore, Inc. (KinaseProfiler service)
T5 sequence (Q9BZL6 whole entry): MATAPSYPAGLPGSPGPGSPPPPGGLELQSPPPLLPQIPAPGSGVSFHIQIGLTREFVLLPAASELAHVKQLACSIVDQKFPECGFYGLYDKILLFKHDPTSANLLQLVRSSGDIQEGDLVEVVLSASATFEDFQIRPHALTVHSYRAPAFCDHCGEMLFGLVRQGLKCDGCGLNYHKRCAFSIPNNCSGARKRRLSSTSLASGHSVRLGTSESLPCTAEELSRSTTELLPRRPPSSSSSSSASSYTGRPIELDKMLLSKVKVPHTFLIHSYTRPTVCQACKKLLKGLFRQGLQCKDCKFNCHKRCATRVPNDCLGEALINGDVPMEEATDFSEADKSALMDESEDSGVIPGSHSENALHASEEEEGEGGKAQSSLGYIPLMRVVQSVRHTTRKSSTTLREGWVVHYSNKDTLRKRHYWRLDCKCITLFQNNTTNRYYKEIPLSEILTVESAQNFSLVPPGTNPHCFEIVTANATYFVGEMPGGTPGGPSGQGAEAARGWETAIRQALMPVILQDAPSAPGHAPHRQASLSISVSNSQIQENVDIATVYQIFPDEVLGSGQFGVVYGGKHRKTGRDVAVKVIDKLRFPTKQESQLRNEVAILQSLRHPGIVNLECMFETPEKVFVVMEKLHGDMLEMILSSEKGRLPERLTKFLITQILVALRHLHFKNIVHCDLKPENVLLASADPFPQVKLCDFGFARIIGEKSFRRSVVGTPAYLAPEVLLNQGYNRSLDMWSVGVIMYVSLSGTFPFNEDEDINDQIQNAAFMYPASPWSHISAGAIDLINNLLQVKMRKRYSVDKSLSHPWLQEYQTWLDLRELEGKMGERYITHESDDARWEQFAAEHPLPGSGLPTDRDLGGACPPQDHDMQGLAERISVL
Text: as §1

[6] = target: T6, PKCgamma (Homo sapiens, UniProt P05129); assay: KinaseProfiler PKCgamma
T6 construct: purchased Millipore, Inc. (KinaseProfiler service)
Text: as §1

[7] = target: T7, MEK1 (Homo sapiens, UniProt Q02750); assay: KinaseProfiler MEK1
T7 construct: purchased Millipore, Inc. (KinaseProfiler service)
T7 sequence (Q02750 whole entry): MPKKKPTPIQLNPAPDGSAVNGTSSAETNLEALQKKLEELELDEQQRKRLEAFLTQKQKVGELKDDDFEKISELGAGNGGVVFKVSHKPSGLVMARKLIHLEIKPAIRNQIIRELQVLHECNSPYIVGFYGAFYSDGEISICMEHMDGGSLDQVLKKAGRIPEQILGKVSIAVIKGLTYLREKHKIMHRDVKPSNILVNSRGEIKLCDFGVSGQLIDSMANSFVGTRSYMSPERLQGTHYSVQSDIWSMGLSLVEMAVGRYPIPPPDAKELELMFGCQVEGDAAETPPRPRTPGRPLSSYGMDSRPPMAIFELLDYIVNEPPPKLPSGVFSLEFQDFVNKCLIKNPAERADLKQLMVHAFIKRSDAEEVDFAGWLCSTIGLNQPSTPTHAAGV
Text: as §1

[8] = target: T8, Bmx (Homo sapiens, UniProt P51813); assay: KinaseProfiler Bmx
T8 construct: purchased Millipore (KinaseProfiler service)
T8 sequence (P51813 whole entry): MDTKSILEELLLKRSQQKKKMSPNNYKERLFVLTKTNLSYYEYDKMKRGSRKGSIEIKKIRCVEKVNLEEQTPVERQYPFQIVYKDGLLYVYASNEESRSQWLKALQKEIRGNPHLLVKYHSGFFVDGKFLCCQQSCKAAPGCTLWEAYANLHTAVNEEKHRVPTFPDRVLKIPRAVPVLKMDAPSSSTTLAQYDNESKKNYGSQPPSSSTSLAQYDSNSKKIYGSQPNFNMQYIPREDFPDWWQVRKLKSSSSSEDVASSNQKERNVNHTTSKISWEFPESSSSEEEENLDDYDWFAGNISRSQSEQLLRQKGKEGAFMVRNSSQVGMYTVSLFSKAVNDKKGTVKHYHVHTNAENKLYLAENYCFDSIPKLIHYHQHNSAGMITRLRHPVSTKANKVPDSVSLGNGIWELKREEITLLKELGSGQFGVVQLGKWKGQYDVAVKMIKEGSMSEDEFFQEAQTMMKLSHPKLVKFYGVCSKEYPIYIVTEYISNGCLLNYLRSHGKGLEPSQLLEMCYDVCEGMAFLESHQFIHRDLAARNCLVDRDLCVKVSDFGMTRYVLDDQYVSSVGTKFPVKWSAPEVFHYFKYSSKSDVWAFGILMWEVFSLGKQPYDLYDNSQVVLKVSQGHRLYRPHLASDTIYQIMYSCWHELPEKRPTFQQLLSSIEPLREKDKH
Text: as §1

[9] = target: T9, MST1 (Homo sapiens, UniProt Q13043); assay: KinaseProfiler MST1
T9 construct: purchased Millipore, Inc. (KinaseProfiler service)
T9 sequence (Q13043 whole entry): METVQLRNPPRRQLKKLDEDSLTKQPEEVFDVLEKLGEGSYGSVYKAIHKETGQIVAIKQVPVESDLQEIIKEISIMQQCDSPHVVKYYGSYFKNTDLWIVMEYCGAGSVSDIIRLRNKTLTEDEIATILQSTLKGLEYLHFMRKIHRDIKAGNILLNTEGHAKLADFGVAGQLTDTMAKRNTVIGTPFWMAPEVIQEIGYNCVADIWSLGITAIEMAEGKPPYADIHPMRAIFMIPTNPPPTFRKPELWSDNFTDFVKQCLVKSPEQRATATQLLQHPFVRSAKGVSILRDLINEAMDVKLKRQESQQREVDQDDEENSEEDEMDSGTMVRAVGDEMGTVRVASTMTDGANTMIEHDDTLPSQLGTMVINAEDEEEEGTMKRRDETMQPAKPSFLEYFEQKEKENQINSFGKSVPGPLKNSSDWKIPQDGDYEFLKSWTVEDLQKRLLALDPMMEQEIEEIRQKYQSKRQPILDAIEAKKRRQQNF
Text: as §1

[10] = target: T10, KIT (Homo sapiens, UniProt P10721); assay: KinaseProfiler KIT
T10 construct: purchased Millipore, Inc. (KinaseProfiler service)
Text: as §1

[11] = target: T11, CDK1/cyclinB (Homo sapiens, UniProt P06493); assay: KinaseProfiler CDK1/cyclinB
T11 construct: purchased Millipore (KinaseProfiler service)
Text: as §1

[12] = target: T12, CK1gamma3 (Homo sapiens, UniProt Q9Y6M4); assay: KinaseProfiler CK1gamma3
T12 construct: purchased Millipore, Inc. (KinaseProfiler service)
Text: as §1

[13] = target: T13, IR Activated (Homo sapiens, UniProt P06213); assay: KinaseProfiler IR Activated
T13 construct: purchased Millipore, Inc. (KinaseProfiler service)
Text: as §1

[14] = target: T14, Fes (Homo sapiens, UniProt P07332); assay: KinaseProfiler Fes
T14 construct: purchased Millipore, Inc. (KinaseProfiler service)
T14 sequence (P07332 whole entry): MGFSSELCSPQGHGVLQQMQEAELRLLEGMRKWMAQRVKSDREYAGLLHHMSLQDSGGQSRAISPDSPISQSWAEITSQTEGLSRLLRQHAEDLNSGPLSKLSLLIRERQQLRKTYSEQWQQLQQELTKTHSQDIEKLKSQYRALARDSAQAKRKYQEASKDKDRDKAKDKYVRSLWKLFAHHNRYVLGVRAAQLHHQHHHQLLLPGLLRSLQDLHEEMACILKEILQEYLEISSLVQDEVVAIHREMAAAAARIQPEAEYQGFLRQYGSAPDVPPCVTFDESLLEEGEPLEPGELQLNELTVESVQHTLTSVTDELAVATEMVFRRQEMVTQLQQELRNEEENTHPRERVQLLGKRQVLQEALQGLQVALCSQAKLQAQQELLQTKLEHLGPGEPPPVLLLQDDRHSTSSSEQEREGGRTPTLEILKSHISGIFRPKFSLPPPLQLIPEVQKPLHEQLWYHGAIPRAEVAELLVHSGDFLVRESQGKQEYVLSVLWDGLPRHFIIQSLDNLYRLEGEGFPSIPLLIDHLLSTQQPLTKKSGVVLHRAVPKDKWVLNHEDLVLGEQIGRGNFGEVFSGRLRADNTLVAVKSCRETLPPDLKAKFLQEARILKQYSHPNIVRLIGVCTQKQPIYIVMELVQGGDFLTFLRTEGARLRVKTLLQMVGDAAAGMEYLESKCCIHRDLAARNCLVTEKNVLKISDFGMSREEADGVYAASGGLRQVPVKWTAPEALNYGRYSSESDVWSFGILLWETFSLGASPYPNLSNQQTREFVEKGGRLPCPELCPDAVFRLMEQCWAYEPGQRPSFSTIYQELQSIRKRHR
Text: as §1

[15] = target: T15, PAK5 (Homo sapiens, UniProt Q9P286); assay: KinaseProfiler PAK5
T15 construct: purchased Millipore, Inc. (KinaseProfiler service)
T15 sequence (Q9P286 whole entry): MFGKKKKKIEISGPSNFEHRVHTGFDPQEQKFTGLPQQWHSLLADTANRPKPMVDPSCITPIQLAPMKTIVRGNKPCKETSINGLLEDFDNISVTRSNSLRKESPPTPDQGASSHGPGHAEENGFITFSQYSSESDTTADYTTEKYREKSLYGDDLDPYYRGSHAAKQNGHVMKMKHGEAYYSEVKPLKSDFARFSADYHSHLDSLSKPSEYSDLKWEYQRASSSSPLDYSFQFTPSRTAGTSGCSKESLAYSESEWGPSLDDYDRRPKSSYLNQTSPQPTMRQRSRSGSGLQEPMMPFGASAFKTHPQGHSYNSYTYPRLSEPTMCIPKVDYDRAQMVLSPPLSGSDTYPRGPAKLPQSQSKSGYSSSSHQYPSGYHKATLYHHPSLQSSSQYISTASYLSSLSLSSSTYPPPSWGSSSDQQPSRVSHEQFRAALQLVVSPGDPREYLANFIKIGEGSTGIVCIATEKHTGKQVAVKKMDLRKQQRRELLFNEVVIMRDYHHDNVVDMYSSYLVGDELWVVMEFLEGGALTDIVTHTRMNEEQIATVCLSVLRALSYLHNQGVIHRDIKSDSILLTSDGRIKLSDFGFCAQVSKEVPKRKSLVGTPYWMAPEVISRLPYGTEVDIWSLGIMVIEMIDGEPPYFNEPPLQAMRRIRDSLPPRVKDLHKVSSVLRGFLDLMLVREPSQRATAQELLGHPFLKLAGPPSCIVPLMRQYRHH
Text: as §1

[16] = target: T16, PKAC-alpha (Homo sapiens, UniProt P17612); assay: KinaseProfiler PKAC-alpha
T16 construct: purchased Millipore, Inc. (KinaseProfiler service)
Text: as §1

[17] = target: T17, LOK (Homo sapiens, UniProt O94804); assay: KinaseProfiler LOK
T17 construct: purchased Millipore, Inc. (KinaseProfiler service)
Text: as §1

[18] = target: T18, CDK2/cyclinA (Homo sapiens, UniProt P24941); assay: KinaseProfiler CDK2/cyclinA
T18 construct: purchased Millipore, Inc. (KinaseProfiler service)
Text: as §1

SMILES: Cc1c(-c2cnn(C)c2)nn(-c2ccccc2)c1NC(=O)Nc1cc(C(F)(F)F)nn1-c1ccccc1 [Example 3, 1-(1′,4-dimethyl-1-phenyl-1H,1′H-[3,4′-bipyrazol]-5-yl)-3-(1-phenyl-3-(trifluoromethyl)-1H-pyrazol-5-yl)urea]
- Avg POC [1]: 118.5 POC
- Avg POC [2]: 107.5 POC
- Avg POC [3]: 91.5 POC
- Avg POC [4]: 96.5 POC
- Avg POC [5]: 115 POC
- Avg POC [6]: 100 POC
- Avg POC [7]: 111 POC
- Avg POC [8]: 114.5 POC
- Avg POC [9]: 92.5 POC
- Avg POC [10]: 86.5 POC
- Avg POC [11]: 102.5 POC
- Avg POC [12]: 125 POC
- Avg POC [13]: 99.5 POC
- Avg POC [14]: 123 POC
- Avg POC [15]: 145.5 POC
- Avg POC [16]: 136.5 POC
- Avg POC [17]: 97.5 POC
- Avg POC [18]: 100.5 POC
